We go through 19 compounds from US20250228239A1, “MOLECULES HAVING PESTICIDAL UTILITY, AND INTERMEDIATES, COMPOSITIONS, AND PROCESSES, RELATED THERETO” (priority 2024, published 2025).

Assay [1] has as its system Beet Armyworm (Spodoptera exigua, LAPHEG). Nature of the assay: Bioassays on Beet Armyworm (BAW), 128-well diet tray assay. In kind it is in vivo. The settings on record: Spodoptera exigua. Put shortly:
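Second-instar larvae, one to five per well, were placed on artificial diet surface-treated with 50 μg/cm^2 compound in 90:10 acetone-water, eight wells per treatment. Trays were held 5–7 days at 25 °C, 14:10 light-dark. Percent mortality per well was averaged over eight wells.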

Assay [2] deals with Cabbage Looper (Trichoplusia ni, TRIPNI). In words: Bioassays on Cabbage Looper (CL), 128-well diet tray assay. It counts as in vivo. As to conditions: Trichoplusia ni. Put shortly: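 Percent mortality, averaged across eight replicate wells, after second-instar larvae (1–5 per well) fed for five to seven days on diet dosed at 50 μg/cm^2. Compound was applied in acetone-water 90:10 and dried; trays kept vented at 25° C under 14:10 photoperiod.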

[3] abbreviates: Beet Armyworm, rating class, read-out: BAW.
The mark [4] stands for this setting: Cabbage Looper, rating class, read-out: CL.
[5] abbreviates: Table ABC: Biological Results, species BAW, read-out: BAW.
[6] abbreviates: Table ABC: Biological Results, species CL, read-out: CL.
Setting [7] is: Beet Armyworm, Table ABC / ABC-DP rating, read-out: BAW rating.
[8] abbreviates: Cabbage Looper, Table ABC / ABC-DP rating, read-out: CL rating.

Where two headings read alike, the source gives them in different places.

With `CC(=O)Nc1ccc(F)c(NC(=O)c2cc(NC(=O)[C@H]3[C@H](c4ccc(Cl)c(Cl)c4)C3(Cl)Cl)ccc2F)c1F` [F1514, N-(3-Acetamido-2,6-difluorophenyl)-5-((1R,3R)-2,2-dichloro-3-(3,4-dichlorophenyl)cyclopropane-1-carboxamido)-2-fluorobenzamide], the pest or weed control at 50 µg/cm2 in assay [1] (setting [3]) and in assay [2] (setting [4]) was 50 to 100% throughout.
Take `Nc1ccc(F)c(NC(=O)c2cc(NC(=O)[C@H]3[C@H](c4cc(Cl)c(Cl)c(Cl)c4)C3(Cl)Cl)cc(F)c2Cl)c1F` [F1337, N-(3-Amino-2,6-difluorophenyl)-2-chloro-5-((1R,3R)-2,2-dichloro-3-(3,4,5-trichlorophenyl)cyclopropane-1-carboxamido)-3-fluorobenzamide]: the pest or weed control at 50 µg/cm2 in assay [1] (setting [5]) and in assay [2] (setting [6]) was 50 to 100% throughout.
On to `Cc1cc(C2C(C(=O)Nc3ccc(Cl)c(C(=O)Nc4ccc(F)c(N)c4F)c3)C2(Cl)Cl)cc(C(F)(F)F)c1F` (stereo not drawn) [F1069, cis-N-(3-Amino-2,4-difluorophenyl)-2-chloro-5-((cis)-2,2-dichloro-3-(4-fluoro-3-methyl-5-(trifluoromethyl)phenyl)cyclopropane-1-carboxamido)benzamide], for which the pest or weed control at 50 µg/cm2 in assay [1] (setting [5]) and in assay [2] (setting [6]) was 50 to 100% in each case.
On to `O=C(Nc1ccc(F)c(NC(=O)C(F)F)c1F)c1cc(NC(=O)[C@H]2[C@H](c3cc(Cl)c(Cl)c(Cl)c3)C2(Cl)Cl)ccc1Cl` [F1269, 2-Chloro-5-((1R,3R)-2,2-dichloro-3-(3,4,5-trichlorophenyl)cyclopropane-1-carboxamido)-N-(3-(2,2-difluoroacetamido)-2,4-difluorophenyl)benzamide], for which the pest or weed control at 50 µg/cm2 in assay [1] (setting [5]) and in assay [2] (setting [6]) was 50 to 100% throughout.
In the case of `CNc1c(F)ccc(NC(=O)c2cc(NC(=O)[C@H]3[C@H](c4ccc(Cl)c(Cl)c4)C3(Cl)Cl)ccc2Cl)c1F` [F1550, 2-Chloro-5-((1R,3R)-2,2-dichloro-3-(3,4-dichlorophenyl)cyclopropane-1-carboxamido)-N-(2,4-difluoro-3-(methylamino)phenyl)benzamide], the pest or weed control at 50 µg/cm2 in assay [1] (setting [3]) and in assay [2] (setting [4]) was 50 to 100% each time.
Regarding `O=C(Nc1cc(NC(=O)C(F)(F)F)c(F)cc1F)c1cc(NC(=O)[C@H]2[C@H](c3ccc(F)c(C(F)(F)F)c3)C2(Cl)Cl)ccc1Cl` [F1541, 2-Chloro-5-((1R,3R)-2,2-dichloro-3-(4-fluoro-3-(trifluoromethyl)phenyl)cyclopropane-1-carboxamido)-N-(2,4-difluoro-5-(2,2,2-trifluoroacetamido)phenyl)benzamide], the pest or weed control at 50 µg/cm2 in assay [1] (setting [3]) and in assay [2] (setting [4]) was 50 to 100% each time.
As to `O=C(Nc1c(F)ccc(NC(=O)c2cc(NC(=O)[C@H]3[C@H](c4ccc(F)c(C(F)(F)F)c4)C3(Cl)Cl)ccc2Cl)c1F)c1cccnc1` [F1206, N-(3-(2-Chloro-5-((1R,3R)-2,2-dichloro-3-(4-fluoro-3-(trifluoromethyl)phenyl)cyclopropane-1-carboxamido)benzamido)-2,6-difluorophenyl)nicotinamide], the pest or weed control at 50 µg/cm2 in assay [1] (setting [5]) and in assay [2] (setting [6]) was 50 to 100% in each case.
In the case of `O=C(Nc1cc(F)cc(NC(=O)C(F)(F)F)c1)c1cc(NC(=O)[C@H]2[C@H](c3cc(Cl)cc(Cl)c3)C2(Cl)Cl)ccc1Cl` (relative stereo) [F1639, trans-2-Chloro-5-(2,2-dichloro-3-(3,5-dichlorophenyl)cyclopropane-1-carboxamido)-N-(3-fluoro-5-(2,2,2-trifluoroacetamido)phenyl)benzamide], the pest or weed control at 50 µg/cm2 in assay [1] (setting [3]) and in assay [2] (setting [4]) was 50 to 100% throughout.
`Cc1cc(NC(=O)C(Cl)(Cl)Cl)ccc1NC(=O)c1cc(NC(=O)[C@H]2[C@H](c3ccc(Cl)c(Cl)c3)C2(Cl)Cl)ccc1Cl` (relative stereo) [F1060, trans-2-Chloro-5-(2,2-dichloro-3-(3,4-dichlorophenyl)cyclopropane-1-carboxamido)-N-(2-methyl-4-(2,2,2-trichloroacetamido)phenyl)benzamide]: the pest or weed control at 50 µg/cm2 in assay [1] (setting [5]) and in assay [2] (setting [6]) was 50 to 100% in each case.
Consider `C=CCC(=O)Nc1c(F)ccc(NC(=O)c2cc(NC(=O)[C@H]3[C@H](c4ccc(F)c(Br)c4)C3(Cl)Cl)ccc2Cl)c1F` [F1880, 5-((1R,3R)-3-(3-Bromo-4-fluorophenyl)-2,2-dichlorocyclopropane-1-carboxamido)-N-(3-(but-3-enamido)-2,4-difluorophenyl)-2-chlorobenzamide], for which the pest or weed control at 50 µg/cm2 in assay [1] (setting [7]) and in assay [2] (setting [8]) was 50 to 100% throughout.
On to `O=C(NNC1CCC(F)(F)CC1)c1cc(NC(=O)[C@H]2[C@H](c3cc(Cl)cc(Cl)c3)C2(Cl)Cl)ccc1Cl` (relative stereo) [F2569, trans-2,2-dichloro-N-(4-chloro-3-(2-(4,4-difluorocyclohexyl)hydrazine-1-carbonyl)phenyl)-3-(3,5-dichlorophenyl)cyclopropane-1-carboxamide], for which the mortality (usually the percentage killed) at 50 µg/cm2 in assay [1] (168 h, second instar larvae, 50 μg/cm^2 of test molecule on artificial diet, 25° C., five to seven days, average of eight wells, read-out: BAW % Control (or Mortality) rating) is 50 to 100%; in assay [2] (168 h, second instar larvae, 50 μg/cm^2 of test molecule on artificial diet, 25° C., five to seven days, average of eight wells, read-out: CL % Control (or Mortality) rating), 50 to 100%. Moreover, the pest or weed control at 50 µg/cm2 in assay [1] (setting [7]) and in assay [2] (setting [8]) was 50 to 100% in each case.
In the case of `O=C(NCCCCl)c1cc(NC(=O)[C@H]2[C@H](c3ccc(F)c(Cl)c3)C2(Cl)Cl)cc(F)c1F` (relative stereo) [F2052, trans-N-(3-Chloropropyl)-5-(2,2-dichloro-3-(3-chloro-4-fluorophenyl)cyclopropane-1-carboxamido)-2,3-difluorobenzamide], the pest or weed control at 50 µg/cm2 in assay [1] (setting [7]) and in assay [2] (setting [8]) was 50 to 100% in each case.
Take `O=C(Nc1ccc(F)c(NC(=O)C(F)(F)C(F)(F)C(F)(F)F)c1F)c1cc(NC(=O)[C@H]2[C@H](c3ccc(F)c(Cl)c3)C2(Cl)Cl)ccc1Cl` [F1741, 2-Chloro-5-((1R,3R)-2,2-dichloro-3-(3-chloro-4-fluorophenyl)cyclopropane-1-carboxamido)-N-(2,4-difluoro-3-(2,2,3,3,4,4,4-heptafluorobutanamido)phenyl)benzamide]: the pest or weed control at 50 µg/cm2 in assay [1] (setting [3]) and in assay [2] (setting [4]) was 50 to 100% throughout.
For the compound `C=C(F)c1cc(F)cc(F)c1NC(=O)c1cc(NC(=O)[C@H]2[C@H](c3cc(Cl)cc(Cl)c3)C2(Cl)Cl)ccc1Cl` (relative stereo) [F1322, trans-2-Chloro-5-(2,2-dichloro-3-(3,5-dichlorophenyl)cyclopropane-1-carboxamido)-N-(2,4-difluoro-6-(1-fluorovinyl)phenyl)benzamide], the pest or weed control at 50 µg/cm2 in assay [1] (setting [5]) and in assay [2] (setting [6]) was 50 to 100% in each case.
Take `O=C(Nc1cc(NC(=O)C(F)(F)F)c(F)cc1F)c1cc(NC(=O)[C@H]2[C@H](c3ccc(F)c(C(F)(F)F)c3)C2(Cl)Cl)cc(F)c1F` [F1584, 5-((1R,3R)-2,2-Dichloro-3-(4-fluoro-3-(trifluoromethyl)phenyl)cyclopropane-1-carboxamido)-N-(2,4-difluoro-5-(2,2,2-trifluoroacetamido)phenyl)-2,3-difluorobenzamide]: the pest or weed control at 50 µg/cm2 in assay [1] (setting [3]) and in assay [2] (setting [4]) was 50 to 100% each time.
Turning to `O=C(Nc1cc(NC(=O)C(F)F)c(F)cc1F)c1cc(NC(=O)[C@H]2[C@H](c3cc(Cl)c(Cl)c(Cl)c3)C2(Cl)Cl)cc(F)c1Cl` [F1404, 2-Chloro-5-((1R,3R)-2,2-dichloro-3-(3,4,5-trichlorophenyl)cyclopropane-1-carboxamido)-N-(5-(2,2-difluoroacetamido)-2,4-difluorophenyl)-3-fluorobenzamide], the pest or weed control at 50 µg/cm2 in assay [1] (setting [3]) and in assay [2] (setting [4]) was 50 to 100% throughout.
Take `CC(=O)Nc1ccc(F)c(NC(=O)c2cc(NC(=O)[C@H]3[C@H](c4cc(Cl)c(Cl)c(Cl)c4)C3(Cl)Cl)ccc2Cl)c1F` [F1515, N-(3-Acetamido-2,6-difluorophenyl)-2-chloro-5-((1R,3R)-2,2-dichloro-3-(3,4,5-trichlorophenyl)cyclopropane-1-carboxamido)benzamide]: the pest or weed control at 50 µg/cm2 in assay [1] (setting [3]) and in assay [2] (setting [4]) was 50 to 100% in each case.
`Cc1cc(NC(=O)[C@H]2[C@H](c3ccc(F)c(C(F)(F)F)c3)C2(Cl)Cl)cc(C(=O)Nc2c(F)ccc(NC(=O)C(F)(F)F)c2F)c1Cl` [F1469, 2-Chloro-5-((1R,3R)-2,2-dichloro-3-(4-fluoro-3-(trifluoromethyl)phenyl)cyclopropane-1-carboxamido)-N-(2,6-difluoro-3-(2,2,2-trifluoroacetamido)phenyl)-3-methylbenzamide]: the pest or weed control at 50 µg/cm2 in assay [1] (setting [3]) and in assay [2] (setting [4]) was 50 to 100% each time.
In the case of `C=CCC(=O)Nc1ccc(F)c(NC(=O)c2cc(NC(=O)[C@H]3[C@H](c4cc(Cl)c(Cl)c(Cl)c4)C3(Cl)Cl)cc(F)c2F)c1F` [F1875, N-(3-(But-3-enamido)-2,6-difluorophenyl)-5-((1R,3R)-2,2-dichloro-3-(3,4,5-trichlorophenyl)cyclopropane-1-carboxamido)-2,3-difluorobenzamide], the pest or weed control at 50 µg/cm2 in assay [1] (setting [7]) and in assay [2] (setting [8]) was 50 to 100% in each case.
